The values below come from BindingDB's records for doi:10.1021/jm0701019 (Abbott Laboratories, 2007).

The term pIC50 denotes −log10 of the IC50, conventionally taken in molar units. Higher therefore signals a low IC50.

Test [1] deals with cAMP-dependent protein kinase catalytic subunit alpha (Bos taurus, UniProt P00517). Kind of test: PKA/PKC Kinase Assay. Here is the method: The kinase assay uses purified recombinant enzyme and a biotinylated peptide as substrate. The biotinylated peptides were immobilized on streptavidin-coated FLASH plates. After reaction, the 33P-phosphopeptide captured on the FLASH plates was measured with a TopCount Packard Instruments gamma counter (Packard Instruments, Boston, MA). IC50s were calculated using the sigmoidal curve fit with the Assay Explorer software (MDL, Los Angeles, CA).

For test [2], the target named is T1, RAC-alpha serine/threonine-protein kinase [139-480,S378A,S381A,T450D,S473D] (Homo sapiens, UniProt P31749, S378A/S381A/S473D/T450D).
T1 construct: 139-480
T1 sequence (P31749 139-480 S378A/S381A/T450D/S473D): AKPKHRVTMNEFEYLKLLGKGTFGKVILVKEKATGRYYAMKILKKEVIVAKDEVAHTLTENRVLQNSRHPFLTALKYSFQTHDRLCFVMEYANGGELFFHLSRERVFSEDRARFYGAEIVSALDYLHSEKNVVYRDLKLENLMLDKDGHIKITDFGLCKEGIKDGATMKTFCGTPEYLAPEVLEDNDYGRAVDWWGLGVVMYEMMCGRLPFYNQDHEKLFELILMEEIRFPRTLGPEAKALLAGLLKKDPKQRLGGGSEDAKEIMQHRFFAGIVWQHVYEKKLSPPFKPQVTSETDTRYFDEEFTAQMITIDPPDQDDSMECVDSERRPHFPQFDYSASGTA
Kind of test: Akt Kinase Assay. The protocol:
The kinase assay uses His-Akt1 and a biotinylated peptide as substrate. The biotinylated peptides were immobilized on streptavidin-coated FLASH plates. After reaction, the 33P-phosphopeptide captured on the FLASH plates was measured with a TopCount Packard Instruments […] (Packard Instruments, Boston, MA).

Each structure is given as a SMILES string. pIC50: −log10 of the molar value.

For `Cc1n[nH]c2ccc(-c3cncc(OC[C@@H](N)Cc4c[nH]c5ccccc45)c3)cc12` [5-{5-[(2S)-2-amino-3-(1H-indol-3-yl)propoxy]pyridin-3-yl}-3-methyl-1H-indazole], the pIC50 in test [1] (pH 7.5, 22 °C) is 8.22; in test [2] (pH 7.5, 22 °C) it was 9.80.
For the molecule `Cc1n[nH]c2ccc(-c3cncc(OC[C@@H](N)Cc4ccc(Br)cc4)c3)cc12` [5-{5-[(2S)-2-amino-3-(4-bromophenyl)propoxy]pyridin-3-yl}-3-methyl-1H-indazole], the pIC50 in test [1] is 7.82; in test [2], 8.30.
On to `Cc1n[nH]c2ccc(-c3cncc(OC[C@@H](N)Cc4cccc(OCC5CCCCC5)c4)c3)cc12` [5-{5-[(2S)-2-amino-3-[3-(cyclohexylmethoxy)phenyl]propoxy]pyridin-3-yl}-3-methyl-1H-indazole], for which the pIC50 in test [1] was below 5.52.
`N[C@H](COc1cncc(-c2ccc3c(c2)/C(=C\c2ccco2)C(=O)N3)c1)Cc1ccccc1` [(3E)-5-{5-[(2S)-2-amino-3-phenylpropoxy]pyridin-3-yl}-3-(furan-2-ylmethylidene)-2,3-dihydro-1H-indol-2-one] showed a pIC50 in test [2] (pH 7.5, 22 °C) of 8.85.
On to `N[C@H](COc1cncc(-c2ccc3c(c2)/C(=C/c2ccc[nH]2)C(=O)N3)c1)Cc1ccccc1` [(3Z)-5-{5-[(2S)-2-amino-3-phenylpropoxy]pyridin-3-yl}-3-(1H-pyrrol-2-ylmethylidene)-2,3-dihydro-1H-indol-2-one], for which, in test [2] (pH 7.5, 22 °C), the pIC50 was 7.80.
As for `Cc1n[nH]c2ccc(-c3cncc(OC[C@@H](N)Cc4ccccc4)c3)cc12` [Biochemistry 469551 Compound 11], in test [1] (pH 7.5, 22 °C), the pIC50 was 7.80.
